Assay results as given in ChEMBL document CHEMBL6120969, “Distinctive Immune Signatures Driven by Structural Alterations in Desmuramylpeptide NOD2 Agonists” (J Med Chem, 2024).
Active and inactive are the calls of the source. The calls are words filed in the database; no cut-off is given here.

What was measured:
[1] = Cytotoxicity against human HEK-Blue hNOD2 cells assessed as metabolic activity at 10 uM incubated for 18 hes by MTT assay; format: toxicity, cell-based; conditions: hek-blue hnod2, 10 µM
PBMC [2] = test: Immunomodulatory activity in human PBMC cells assessed as increase in IL-4 level at 2 uM incubated for 18 hrs y flow cytometry analysis; format: functional, cell-based
Outline: (§1)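 Cytokine levels in cell-free supernatants were measured by flow cytometry using the LEGENDplex Human Essential Immune Response Panel and the kit's recombinant standard curves. The supernatants came from human donor PBMCs (1 × 10^6 cells/mL) kept for 18 h at 37 °C, 5% CO2 with 2 μM compound or 0.1% DMSO vehicle, with no LPS added. Four independent replicates were compared by two-way ANOVA followed by Tukey's test.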

PBMC [3] = test: Immunomodulatory activity in human PBMC cells assessed as increase in IL-2 level at 2 uM incubated for 18 hrs y flow cytometry analysis; format: functional, cell-based; outline: as §1
PBMC [4] = test: Immunomodulatory activity in human PBMC cells assessed as increase in IP-10 level at 2 uM incubated for 18 hrs y flow cytometry analysis; format: functional, cell-based; outline: as §1
PBMC [5] = test: Immunomodulatory activity in human PBMC cells assessed as increase in IL-1beta level at 2 uM incubated for 18 hrs y flow cytometry analysis; format: functional, cell-based; outline: as §1
PBMC [6] = test: Immunomodulatory activity in human PBMC cells assessed as increase in TNF-alpha level at 2 uM incubated for 18 hrs y flow cytometry analysis; format: functional, cell-based; outline: as §1
PBMC [7] = test: Immunomodulatory activity in human PBMC cells assessed as increase in MCP-1 level at 2 uM incubated for 18 hrs y flow cytometry analysis; format: functional, cell-based; outline: as §1
PBMC [8] = test: Immunomodulatory activity in human PBMC cells assessed as increase in IL-17A level at 2 uM incubated for 18 hrs y flow cytometry analysis; format: functional, cell-based; outline: as §1
PBMC [9] = test: Immunomodulatory activity in human PBMC cells assessed as increase in IL-6 level at 2 uM incubated for 18 hrs y flow cytometry analysis; format: functional, cell-based; outline: as §1
PBMC [10] = test: Immunomodulatory activity in human PBMC cells assessed as increase in IL-10 level at 2 uM incubated for 18 hrs y flow cytometry analysis; format: functional, cell-based; outline: as §1
PBMC [11] = test: Immunomodulatory activity in human PBMC cells assessed as increase in IFN-gamma level at 2 uM incubated for 18 hrs y flow cytometry analysis; format: functional, cell-based; outline: as §1
PBMC [12] = test: Immunomodulatory activity in human PBMC cells assessed as increase in IL-12p70 level at 2 uM incubated for 18 hrs y flow cytometry analysis; format: functional, cell-based; outline: as §1
PBMC [13] = test: Immunomodulatory activity in human PBMC cells assessed as increase in IL-8 level at 2 uM incubated for 18 hrs y flow cytometry analysis; format: functional, cell-based; outline: as §1
PBMC [14] = test: Immunomodulatory activity in human PBMC cells assessed as increase in TGF-beta1 level at 2 uM incubated for 18 hrs y flow cytometry analysis; format: functional, cell-based; outline: as §1
PBMC [15] = test: Immunomodulatory activity in human PBMC cells assessed as increase in LPS-induced IL-1beta level at 2 uM incubated for 18 hrs y flow cytometry analysis; format: functional, cell-based
PBMC [16] = test: Immunomodulatory activity in human PBMC cells assessed as increase in LPS-induced IL-6 level at 2 uM incubated for 18 hrs y flow cytometry analysis; format: functional, cell-based
Outline: (§2)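 For the cytokine readout, cell-free supernatants were assayed by flow cytometry with the LEGENDplex Human Essential Immune Response Panel and quantified against the kit's recombinant standard curves. These supernatants were collected from Ficoll-Paque-isolated human donor PBMCs that had been stimulated with LPS (10 ng/mL) in the presence of compounds at 2 μM or 0.1% DMSO for 18 h at 37 °C, 5% CO2. Statistics used two-way ANOVA with Tukey's test across four independent replicates.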

PBMC [17] = test: Immunomodulatory activity in human PBMC cells assessed as increase in LPS-induced IL-10 level at 2 uM incubated for 18 hrs y flow cytometry analysis; format: functional, cell-based; outline: as §2
PBMC [18] = test: Immunomodulatory activity in human PBMC cells assessed as increase in LPS-induced TNF-alpha level at 2 uM incubated for 18 hrs y flow cytometry analysis; format: functional, cell-based
PBMC [19] = test: Immunomodulatory activity in human PBMC cells assessed as increase in LPS-induced IL-12p70 level at 2 uM incubated for 18 hrs y flow cytometry analysis; format: functional, cell-based
PBMC [20] = test: Immunomodulatory activity in human PBMC cells assessed as increase in LPS-induced IFN-gamma level at 2 uM incubated for 18 hrs y flow cytometry analysis; format: functional, cell-based
PBMC [21] = test: Immunomodulatory activity in human PBMC cells assessed as increase in LPS-induced MCP-1 level at 2 uM incubated for 18 hrs y flow cytometry analysis; format: functional, cell-based; outline: as §2
PBMC [22] = test: Immunomodulatory activity in human PBMC cells assessed as increase in LPS-induced IP-10 level at 2 uM incubated for 18 hrs y flow cytometry analysis; format: functional, cell-based; outline: as §2
PBMC [23] = test: Cytotoxicity against human PBMC cells co-cultured with human K562 cells at 10 uM incubated for 4 hrs; format: functional, cell-based
Outline: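 After 18 h pretreatment with compounds at 10 μM (vehicle 0.1% DMSO), human PBMCs (4 × 10^5/well, 96-well) were cocultured for 4 h at 37 °C, 5% CO2 with CFSE-stained K562 cells at an effector:target ratio of 40:1 (1 × 10^4/well). Target cell killing was measured by flow cytometry on an Attune NxT as CFSE+ Sytox blue+ K562 cells.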

[24] = Cytotoxicity against human PBMC cells at 10 uM incubated for 4 hrs; format: toxicity, cell-based
Outline: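 Alongside a K562 killing assay, human PBMCs on their own received compounds at 10 μM in 0.1% DMSO vehicle. After Sytox blue dead cell staining, the cells were acquired on an Attune NxT flow cytometer and analysed with FlowJo. Sytox blue-positive cells served as the readout of direct cytotoxicity. Duplicates were run in three independent biological replicates, and statistics used one-way ANOVA followed by Dunnett's test.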

[25] = Cytotoxicity against human PBMC cells at 10 uM incubated for 4 hrs in presence of MDP; format: toxicity, cell-based
BMDC [26] = test: Adjuvant activity in OVA-immunized C57BL/6J mouse BMDC cells assessed as increase in CD4+ T cell activation incubated for 18 hrs; format: functional, cell-based
Outline: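 Dendritic cells were derived from C57BL/6 mouse bone marrow by 7 days of culture with GM-CSF, then pretreated for 18 h with compounds at 10 μM together with 50 μg/mL ovalbumin and washed. These cells (1 × 10^4/well) were co-cultured with 5 × 10^4 CFSE-labelled OT II CD4+ T cells for 72 h at 37 °C in 5% CO2. T-cell activation was assessed by flow cytometry on live Thy1.2+/CD4+ cells, using CFSE dilution and CD25 expression as readouts. Assays were run in duplicate across two independent biological replicates and analysed with paired t tests.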

BMDC [27] = test: Adjuvant activity in OVA-immunized C57BL/6J mouse BMDC cells co-cultured with mouse CD4+ T cells assessed as increase in IL-2 level at 10 uM incubated for 18 hrs; format: functional, cell-based
BMDC [28] = test: Adjuvant activity in OVA-immunized C57BL/6J mouse BMDC cells co-cultured with mouse CD4+ T cells assessed as increase in IL-9 level at 10 uM incubated for 18 hrs; format: functional, cell-based
BMDC [29] = test: Adjuvant activity in OVA-immunized C57BL/6J mouse BMDC cells co-cultured with mouse CD8+ T cells assessed as increase in IL-6 production at 10 uM incubated for 18 hrs by flow cytometry analysis; format: functional, cell-based
BMDC [30] = test: Adjuvant activity in OVA-immunized C57BL/6J mouse BMDC cells co-cultured with mouse CD8+ T cells assessed as reduction in IFN-gamma production at 10 uM incubated for 18 hrs by flow cytometry analysis; format: functional, cell-based
BMDC [31] = test: Adjuvant activity in OVA-immunized C57BL/6J mouse BMDC cells co-cultured with mouse CD4+ T cells assessed as reduction in IFN-gamma production at 10 uM incubated for 18 hrs by flow cytometry analysis; format: functional, cell-based
BMDC [32] = test: Adjuvant activity in OVA-immunized C57BL/6J mouse BMDC cells co-cultured with mouse CD4+ T cells assessed as increase in IL-4 production at 10 uM incubated for 18 hrs by flow cytometry analysis; format: functional, cell-based
[33] = Anti-inflammatory activity in human PBMC cells assessed as increase in percentage of non classical monocytes at 10 uM incubated for 18 hrs by flow cytometry analysis; format: functional
[34] = Anti-inflammatory activity in human PBMC cells assessed as increase in percentage of intermediate monocytes at 10 uM incubated for 18 hrs by flow cytometry analysis; format: functional
[35] = Anti-inflammatory activity in human PBMC cells assessed as increase in percentage of classical monocytes at 10 uM incubated for 18 hrs by flow cytometry analysis; format: functional
BMDC [36] = test: Adjuvant activity in OVA-immunized C57BL/6J mouse BMDC cells co-cultured with mouse CD4+ T cells assessed as increase in IL-6 production at 10 uM incubated for 18 hrs by flow cytometry analysis; format: functional, cell-based
BMDC [37] = test: Adjuvant activity in OVA-immunized C57BL/6J mouse BMDC cells co-cultured with mouse CD8+ T cells assessed as increase in IL-9 production at 10 uM incubated for 18 hrs by flow cytometry analysis; format: functional, cell-based

SMILES	Activity [1]	Activity (PBMC [2])	Activity (PBMC [3])	Activity (PBMC [4])	Activity (PBMC [5])	Activity (PBMC [6])	Activity (PBMC [7])	Activity (PBMC [8])	Activity (PBMC [9])	Activity (PBMC [10])	Activity (PBMC [11])	Activity (PBMC [12])	Activity (PBMC [13])	Activity (PBMC [14])	Activity (PBMC [15])	Activity (PBMC [16])	Activity (PBMC [17])	Activity (PBMC [18])	Activity (PBMC [19])	Activity (PBMC [20])	further results
CC/C=C\C/C=C\C/C=C\C/C=C\C/C=C\CCCC(=O)Oc1ccc(/C=C/C(=O)NCC(=O)N[C@H](C(=O)N[C@H](CCC(=O)OCC)C(=O)OCC)C(C)C)cc1OC	Non-toxic	Active	Active	Active	Active	Active	Active	Active	Active	Active	Active	Active	Active	Active	Active	Active	Active	Active	Active	Active	Activity (PBMC [21]): Active; Activity (PBMC [22]): Active; Activity (PBMC [23]): inactive; Activity [24]: Non-toxic; Activity [25]: Non-toxic; Activity (BMDC [26]): Active; Activity (BMDC [27]): Active; Activity (BMDC [28]): Active; Activity (BMDC [29]): Active; Activity (BMDC [30]): Active; Activity (BMDC [31]): Active; Activity (BMDC [32]): Active
CCOC(=O)CC[C@@H](NC(=O)[C@@H](NC(=O)CNC(=O)/C=C/c1ccc(OC(=O)CO[C@H]2CC[C@@]3(C)C(=CC[C@H]4[C@@H]5CC[C@H]([C@H](C)CCCC(C)C)[C@@]5(C)CC[C@@H]43)C2)c(OC)c1)C(C)C)C(=O)OCC	Non-toxic	Active	Active	Active	Active	Active	Active	Active	Active	Active	Active	Active	Active	Active	Active	Active	Active	Active	Active	Active	Activity (PBMC [21]): Active; Activity (PBMC [22]): Active; Activity (PBMC [23]): Active; Activity [24]: Moderate_effect; Activity [33]: 76.6%; Activity [34]: 4.53%; Activity [35]: 0.35%; Activity (BMDC [26]): Active; Activity (BMDC [27]): Active; Activity (BMDC [28]): Active; Activity (BMDC [36]): Active; Activity (BMDC [37]): Active
CCOC(=O)[C@@H](CCC(=O)NC12C[C@H]3C[C@@H](C1)C[C@@H](C2)C3)NC(=O)[C@@H](NC(=O)CNC(=O)/C=C/c1ccc(O)c(OC)c1)C(C)C	Non-toxic	Active	Active	Active	Active	Active	Active	Active	Active	Active	Active	Active	Active	Active	Active	Active	Active	Active	Active	Active	Activity (PBMC [21]): Active; Activity (PBMC [22]): Active; Activity (PBMC [23]): inactive; Activity [24]: Non-toxic; Activity [25]: Non-toxic; Activity (BMDC [26]): Active; Activity (BMDC [27]): Active; Activity (BMDC [28]): Active; Activity (BMDC [36]): Active; Activity (BMDC [29]): Active; Activity (BMDC [37]): Active; Activity (BMDC [30]): Active; Activity (BMDC [31]): Active; Activity (BMDC [32]): Active
CCCC(=O)Oc1ccc(/C=C/C(=O)NCC(=O)N[C@H](C(=O)N[C@H](CCC(=O)OCC)C(=O)OCC)C(C)C)cc1OC	Non-toxic	Active	Active	Active	Active	Active	Active	Active	Active	Active	Active	Active	Active	Active	Active	Active	Active	Active	Active	Active	Activity (PBMC [21]): Active; Activity (PBMC [22]): Active; Activity (PBMC [23]): inactive; Activity [24]: Non-toxic; Activity [25]: Non-toxic; Activity (BMDC [26]): Active; Activity (BMDC [27]): Active; Activity (BMDC [28]): Active; Activity (BMDC [29]): Active; Activity (BMDC [30]): Active; Activity (BMDC [31]): Active; Activity (BMDC [32]): Active
